Each structure is given as a SMILES string. Active and inactive are the calls of the source. No cut-off for these calls is given here.

Series [1] has as its system Influenza A virus. In words: Antiviral activity against Influenza A virus H1N1 (A/Puerto Rico/8/34) infected in MDCK cells assessed as reduction in NP protein level at 10 uM in presence of rGTP by Western blot analysis. Format: functional, organism-based.
In series [2] the test system is Influenza A virus. In words: Antiviral activity against Influenza A virus H1N1 (A/Puerto Rico/8/34) infected in MDCK cells assessed as reduction in NP protein level at 10 uM in presence of rATP by Western blot analysis. Format: functional, organism-based. On the technique in general: A western blot detects proteins with antibodies after separation by electrophoresis.

For series [3], the system named is Influenza A virus. In words: Antiviral activity against Influenza A virus H1N1 (A/Puerto Rico/8/34) infected in MDCK cells assessed as reduction in NP protein level at 10 uM in presence of 125 uM rNTP by Western blot analysis. Format: functional, organism-based.
The nature of series [4]: Metabolic stability in human liver microsomes assessed as intrinsic clearance preincubated for 5 mins followed by NADPH addition and measured upto 45 mins by LC-MS analysis. Format: ADME, Microsome. Conditions: time < 50 min, read-out: CLH.
A short description of series [5]: Metabolic stability in dog liver microsomes assessed as half life preincubated for 5 mins followed by NADPH addition and measured upto 45 mins by LC-MS analysis. Format: ADME, Canis lupus familiaris, Microsome. Particulars: time < 50 min. In general terms: Liver microsomes are vesicles of endoplasmic reticulum, rich in cytochrome P450 enzymes.
A short description of series [6]: Metabolic stability in mouse liver microsomes assessed as hepatic clearance preincubated for 5 mins followed by NADPH addition and measured upto 45 mins by LC-MS analysis. Format: ADME, Microsome. Conditions: time < 50 min.
The nature of series [7]: Metabolic stability in mouse liver microsomes assessed as half life preincubated for 5 mins followed by NADPH addition and measured upto 45 mins by LC-MS analysis. Format: ADME, Microsome. Particulars: time < 50 min.
Series [8] is described as follows: Metabolic stability in dog liver microsomes assessed as intrinsic clearance preincubated for 5 mins followed by NADPH addition and measured upto 45 mins by LC-MS analysis. Format: ADME, Canis lupus familiaris, Microsome. Particulars: time < 50 min, read-out: CLH.
Series [9] is described as follows: Metabolic stability in mouse liver microsomes assessed as hepatic extraction ratio preincubated for 5 mins followed by NADPH addition and measured upto 45 mins by LC-MS analysis. Format: ADME, Microsome. Conditions: time < 50 min.
Series [10] in a line: Metabolic stability in mouse liver microsomes assessed as intrinsic clearance preincubated for 5 mins followed by NADPH addition and measured upto 45 mins by LC-MS analysis. Format: ADME, Microsome. Conditions: time < 50 min, read-out: CLH.
Series [11] is described as follows: Metabolic stability in dog liver microsomes assessed as hepatic clearance preincubated for 5 mins followed by NADPH addition and measured upto 45 mins by LC-MS analysis. Format: ADME, Canis lupus familiaris, Microsome. Particulars: time < 50 min.
Series [12] can be described thus: Metabolic stability in human liver microsomes assessed as hepatic clearance preincubated for 5 mins followed by NADPH addition and measured upto 45 mins by LC-MS analysis. Format: ADME, Microsome. Conditions: time < 50 min.
Series [13] can be described thus: Metabolic stability in dog liver microsomes assessed as hepatic extraction ratio preincubated for 5 mins followed by NADPH addition and measured upto 45 mins by LC-MS analysis. Conditions: time < 50 min. Format: ADME, Canis lupus familiaris, Microsome.
The nature of series [14]: Metabolic stability in human liver microsomes assessed as hepatic extraction ratio preincubated for 5 mins followed by NADPH addition and measured upto 45 mins by LC-MS analysis. Format: ADME, Microsome. Particulars: time < 50 min.
A short description of series [15]: Metabolic stability in human liver microsomes assessed as half life preincubated for 5 mins followed by NADPH addition and measured upto 45 mins by LC-MS analysis. Conditions: time < 50 min. Format: ADME, Microsome.
A short description of series [16]: Clearance in Sprague-Dawley rat at 3 mg/kg, iv measured up to 24 hrs by LC-MS analysis. Format: ADME, organism-based. Particulars: in vivo.
The nature of series [17]: Tmax in Sprague-Dawley rat at 10 mg/kg, po measured up to 24 hrs by LC-MS analysis. Format: ADME, organism-based. Conditions: in vivo.
Series [18] can be described thus: AUC(0 to t) in Sprague-Dawley rat at 3 mg/kg, iv measured up to 24 hrs by LC-MS analysis. Format: ADME, organism-based. Particulars: in vivo.
A short description of series [19]: Tmax in Sprague-Dawley rat at 3 mg/kg, iv measured up to 24 hrs by LC-MS analysis. Format: ADME, organism-based. Conditions: in vivo.
A short description of series [20]: Cmax in Sprague-Dawley rat at 10 mg/kg, po measured up to 24 hrs by LC-MS analysis. Format: ADME, organism-based. Particulars: in vivo.
Series [21] has as its system Influenza B virus. In words: Antiviral activity against influenza B virus Victoria/2/87 infected in MDCK cells. Particulars: Victoria/2/87, MDCK. Format: functional, organism-based.
A short description of series [22]: Cmax in Sprague-Dawley rat at 3 mg/kg, iv measured up to 24 hrs by LC-MS analysis. Conditions: in vivo. Format: ADME, organism-based.
The test system of series [23] is Influenza A virus. In words: Antiviral activity against Influenza A virus H1N1 (A/Puerto Rico/8/34) infected in MDCK cells assessed as reduction in virus-induced cytopathic effect incubated for 48 hrs by CCK8 assay. Format: functional, organism-based. On the technique in general: Cytopathic effects are the visible damage that an infection or toxin causes in cultured cells.

Series [24] is described as follows: Oral bioavailability in Sprague-Dawley rat at 10 mg/kg measured up to 24 hrs by LC-MS analysis. Format: ADME, organism-based. Conditions: in vivo.
A short description of series [25]: Selectivity index, ratio of CC50 for MDCK cells to EC50 for antiviral activity against Influenza A virus H1N1 (A/Puerto Rico/8/34) infected in MDCK cells. Particulars: dog, read-out: Ratio CC50/EC50. Format: toxicity, cell-based.
In series [26] the test system is Influenza B virus. In words: Antiviral activity against influenza B virus B/Yamagata/16/88 infected in MDCK cells. Particulars: B/Yamagata/16/88, MDCK. Format: functional, organism-based.
The nature of series [27]: AUC(0 to infinity) in Sprague-Dawley rat at 3 mg/kg, iv measured up to 24 hrs by LC-MS analysis. Format: ADME, organism-based. Conditions: in vivo.
Series [28] in a line: AUC(0 to t) in Sprague-Dawley rat at 10 mg/kg, po measured up to 24 hrs by LC-MS analysis. Format: ADME, organism-based. Particulars: in vivo.
Series [29] in a line: Half life in Sprague-Dawley rat at 3 mg/kg, iv measured up to 24 hrs by LC-MS analysis. Format: ADME, organism-based. Particulars: in vivo.
Series [30] in a line: Cytotoxicity against MDCK cells by CCK-8 assay. Conditions: dog. Format: toxicity, cell-based, Canis lupus familiaris.
Series [31] can be described thus: Half life in Sprague-Dawley rat at 10 mg/kg, po measured up to 24 hrs by LC-MS analysis. Format: ADME, organism-based. Particulars: in vivo.
A short description of series [32]: AUC(0 to infinity) in Sprague-Dawley rat at 10 mg/kg, po measured up to 24 hrs by LC-MS analysis. Format: ADME, organism-based. Conditions: in vivo.
Series [33] deals with Influenza A virus. In words: Antiviral activity against Influenza A virus H1N1 (A/Puerto Rico/8/34) infected in MDCK cells assessed as reduction in NP protein level at 10 uM treated at 1 hr post infection by Western blot analysis. Format: functional, organism-based.
Series [34] deals with Influenza A virus. In words: Antiviral activity against Influenza A virus H1N1 (A/Puerto Rico/8/34) infected in MDCK cells assessed as reduction in NP viral RNA level at 10 uM treated at 1 hr post infection by qRT-PCR analysis. Format: functional, organism-based.
Series [35] has as its system Influenza A virus. In words: Antiviral activity against Influenza A virus H1N1 (A/Puerto Rico/8/34) infected in MDCK cells assessed as reduction in NP protein level at 1 uM in presence of 1000 uM rNTP by Western blot analysis. Format: functional, organism-based.
The test system of series [36] is Influenza A virus. In words: Inhibition of Influenza A virus RdRp activity assessed as reduction in Fluc/Rluc ratio at 0.1 to 10 uM. Conditions: dose 0.1-10 µM.
Series [37] can be described thus: Metabolic stability in human plasma after 15 mins by LC-MS/MS analysis. Format: ADME, cell-free. Particulars: 0.25 h, BLD = below limit of detection.
Series [38] is described as follows: Metabolic stability in human plasma measured upto 120 mins by LC-MS/MS analysis. Conditions: 2 h. Format: ADME, cell-free.
A short description of series [39]: Metabolic stability in human plasma assessed as half life measured upto 120 mins by LC-MS/MS analysis. Format: ADME, cell-free.

Consider `NC(=O)c1ncn([C@@H]2O[C@H](CO)[C@@H](O)[C@H]2O)n1`, for which the outcome with Influenza A virus [1] and in the series with Influenza A virus [2] was inactive. Moreover, the outcome in the series with Influenza A virus [3] was Active.

A word on the half-life: it is the time in which the quantity being followed falls by half. `O=C(c1ccc(F)cc1)C1CCN(CCn2c(=O)[nH]c3ccccc3c2=O)CC1` [KETANSERIN]: the CLint scaled in [4] came to 2.8 L/h/kg; in series [8], 4.27 L/h/kg; in series [10] it was 17.6 L/h/kg. For the same compound, the half-life in series [5] came to 48.5 min; in series [7] it was 18.6 min; in series [15] it was 37.2 min. The results for the CLhep predicted in series [6], in series [11] and in series [12] were 4.13 L/h/kg, 1.29 L/h/kg and 0.86 L/h/kg, respectively. Besides, the hepatic extraction ratio at 0.75 h in series [9] was determined as 76.5%; in series [13], 69.7%; in series [14], 69.3%.

The term clearance denotes a measure of how efficiently the substance is removed, as volume per time. What is called Tmax is the time from dosing to the highest level. Usually AUC(0-t) stands for the area under the concentration-time curve up to a stated or last time point. High values mean high exposure, low ones low exposure. For orientation: Cmax means the maximum level reached in the sampled fluid or tissue. In general, EC50 refers to the concentration that produces a half-maximal response. Broadly, the bioavailability is the share of a dose that reaches the circulation, judged against a reference dose that is usually intravenous. One may read the AUC(0-inf) as total exposure, with the tail of the curve extrapolated. Lower therefore signals low exposure. As a reminder, the CC50 is the concentration at which the toxic effect on the cells reaches its halfway point. Higher therefore signals lower toxicity to the cells. In series [16], `CC(C)(C)c1ccc(C(=O)NC(=S)Nc2ccc(O)cc2)cc1` showed a clearance of 2.78 L/h/kg. The values for the Tmax in [17] and in series [19] were 94.8 min and 4.8 min, respectively. In addition, the AUC(0-t) at 24 h in series [18] is 1.09 µg·h/mL; in series [28] it was 0.0443 µg·h/mL. Also, the Cmax in series [20] turned out to be 0.0128 µg/mL; in [22], 2.52 µg/mL. Moreover, the EC50 in the series on Influenza B virus [21] was determined as 5.2 µM; in the series on Influenza A virus [23], 0.02 µM; in the series with Influenza B virus [26], 4 µM. In addition, the bioavailability in [24] came to 1.21%. The selectivity ratio in [25] was determined as 3880. Moreover, the AUC(0-inf) in series [27] (Sprague-Dawley) turned out to be 1.1 µg·h/mL. Further, the half-life in [29] is 30.6 min. In series [30], this compound registered a CC50 of 77.7 µM.

The AUC is concentration integrated over time. A lower AUC goes with low exposure. `CCC(=O)Nc1ccc(NC(=S)NC(=O)c2ccc(C(C)(C)C)cc2)cc1`: the Tmax in series [17] was 25.2 min; in series [19], 4.8 min. In addition, the figures for the AUC(0-t) at 24 h in series [18] and in [28] were 1.24 µg·h/mL and 0.034 µg·h/mL, respectively. The half-life in [31] is 113 min; in series [29] it was 51 min. Moreover, the values for the Cmax in series [20] and in series [22] were 0.013 µg/mL and 3.65 µg/mL, respectively. Further, the EC50 amounted to 3.1 µM in the series with Influenza B virus [21], 0.016 µM in the series on Influenza A virus [23] and 2.5 µM in the series with Influenza B virus [26]. Further, the bioavailability in [24] was 0.83%. Also, the selectivity ratio in [25] came out at 5430. Also, in series [27] (iv, 3 mg/kg, 24 h), the AUC was determined as 1.236 µg·h/mL. In series [32], this compound gave an AUC(0-inf) of 0.036 µg·h/mL. In [30], this compound came in with a 50% cytotoxic concentration (CC50) of 86.9 µM.

`NC12CC3CC(CC(C3)C1)C2`: the outcome in the series on Influenza A virus [33] and with Influenza A virus [34] was Active.

Turning to `CC(=O)N[C@H]1[C@H]([C@H](O)[C@H](O)CO)OC(C(=O)O)=C[C@@H]1NC(=N)N` [ZANAMIVIR], the outcome in the series on Influenza A virus [35] was Active. The EC50 in the series on Influenza A virus [23] was determined as 0.065 µM. Further, the inhibition entry in the series with Influenza A virus [36] is “inactive”.

Consider `CCN(CC)CCOC(=O)c1ccc(N)cc1` [PROCAINE], for which the figures for the Stability result in series [37] and in [38] were “Bld” and “Unstable”, respectively. In series [39], the half-life is 1.12 min.
